Data reported in patent US20200345055A1, “ACTIVATION OF CONDITIONALLY-EXPRESSED OLIGOSACCHARIDE PATHWAYS DURING FERMENTATION OF PROBIOTIC STRAINS” (EVOLVE BIOSYSTEMS, INC., priority 2018, published 2020).
Entries after “also recorded” stand apart in the source; their conditions may differ.

Legend:
[1] = test system: Blon_2343 (carbohydrate ABC transporter inner membrane protein); experiment: qRT-PCR gene expression in B. infantis EVC001, relative to Blon_0393, 2^-ΔΔCt; assay type: cell-based, Bifidobacterium longum subsp. infantis EVC001; conditions: 10 g/L activator + 10 g/L glucose, 16 hours; control 20 g/L glucose = 1
Description: (§1) In some embodiments, gene activation relates to Blon_0881 and Blon_2343 and their expression is greater than 1; that is, when the delta delta cycle threshold (2^−ΔΔ^Ct) is greater than 1, 2^−ΔΔ^Ct is calculated using Blon_0393, or another constitutively expressed gene as a reference. The result (activation) is the fold change (2^−ΔΔ^Ct>1) of gene expression, determined based on the 2^−ΔΔ^Ct method. (Livak K and Schmittgen T. (2001). Analysis of relative gene expression data using qRT-PCR and the 2^−ΔΔ^Ct Method. Methods: 25: 402-8). In other embodiments, other genes from Table 1 are used in addition to Blon_0881 and Blon_2343.
(§2) B. infantis EVC001 (Bifidobacterium longum subsp. infantis EVC001 deposited under ATCC Accession No. PTA-125180) was grown under 3 different experimental conditions for 16 hours. The carbon source was added to the initial culture media in the following amounts: 1) 20 g/L glucose; 2) 10 g/L N-acetyl-lactosamine and 10 g/L glucose; and 3) 10 g/L NAG and 10 g/L glucose. The cells were harvested and RNA was extracted to look specifically at gene expression of Blon_0881 and Blon_2343 by qRT-PCR relative to Blon_0393 and expressed as 2^−ΔΔ^Ct. Activation is determined by comparing against the control (glucose). A result greater than 1 is considered activated N-acetyl-lactosamine is an activator of B. infantis EVC001.

[2] = test system: Blon_0881 (glucosamine-6-phosphate isomerase); experiment: as above; assay type: cell-based, Bifidobacterium longum subsp. infantis EVC001; conditions: 10 g/L activator + 10 g/L glucose, 16 hours; control 20 g/L glucose = 1
Description: as §1, §2

B. infantis EVC001 = experiment: Activation of B. infantis EVC001 judged from Blon_0881 and Blon_2343 expression against glucose control; assay type: cell-based, Bifidobacterium longum subsp. infantis EVC001; conditions: 10 g/L activator + 10 g/L glucose, 16 hours
Description: as §1, §2

[3] = test system: fucosidase activity in B. infantis; experiment: Fucosidase activity of dried B. infantis final product (colorimetric nitrophenol release, absorbance at 450 nm); assay type: cell-based, Bifidobacterium infantis
Description: FIG. 1. A comparison of fucosidase activity between a final product of B. infantis grown on N-acetylglucosamine (NAG) and a final product of B. infantis grown on glucose/lactose. B. infantis grown on 2.5% w/v NAG is compared to B. infantis grown on glucose/lactose. The absorbance due to the colorometric change resulting from fucosidase activity in the supernatant is measured using a spectrophotometer at 450 nm. […] A fermentation media was made that contained NAG as 100% of the carbon source. This represented 2% of the total media composition (wt/vol). The media also contained sources of nitrogen, minerals, reducing agents and was autoclaved prior to addition of a B. infantis inoculum. The fermentation was carried out under anaerobic conditions for up to 72 hours, until the fermentation reached the stationary phase. The cells were separated from the spent media and concentrated. A cryoprotectant was mixed with the cells to stabilize before freeze-drying. Once dried, the formulation was analyzed for fucosidase activity compared to a dried formulation that had been grown on glucose/lactose. […] The colorimetric difference was confirmed using a spectrophotometer (FIG. 1).

[4] = test system: Blon_2343 and Blon_0881 in B. infantis; experiment: qRT-PCR of Blon_2343 and Blon_0881 in B. infantis grown on NAG/glucose, normalized to Blon_0393; assay type: cell-based; conditions: all tested concentrations of NAG (5-20 g/L with glucose to 20 g/L), harvested after 6 or 12 hours; FIG. 2
Description: FIG. 2. Average relative fold change in gene expression of the genes Blon_2343 and Blon_0881 in B. infantis coding a carbohydrate ABC transporter inner membrane protein and a glucosamine-6-phosphate isomerase or NagB, respectively. Different concentrations of N-acetylglucosamine (NAG) were added to the culture media used to ferment B. infantis. The cells were harvested after 6 hours (A) or 12 hours of growth (B) and RNA was isolated for quantitative reverse transcription PCR (qRT-PCR). Activation was assessed using specific primers for Blon_2343 and Blon_0881 and normalized to a housekeeping gene (Blon_0393). The dashed horizontal line represents no change in expression. […] Cells grown in glucose alone (0 g/L NAG) show no activation.
In some embodiments, gene activation relates to Blon_0881 and Blon_2343 and their expression is greater than 1; that is, when the delta delta cycle threshold (2^−ΔΔ^Ct) is greater than 1, 2^−ΔΔ^Ct is calculated using Blon_0393, or another constitutively expressed gene as a reference. The result (activation) is the fold change (2^−ΔΔ^Ct>1) of gene expression, determined based on the 2^−ΔΔ^Ct method. […]
A series of fermentations were conducted where B. infantis was grown on various concentrations of NAG and glucose shown in Table 5. The cells were grown for a determined period of time (i.e 6 and 12 hours) and spun down. […]

[5] = test system: N-acetylglucosamine-6-phosphate deacetylase gene in L. plantarum; experiment: qRT-PCR of N-acetylglucosamine-6-phosphate deacetylase in Lactobacillus plantarum, normalized to rpoB; assay type: cell-based; conditions: for activation of L. plantarum (fold change of N-acetylglucosamine-6-phosphate deacetylase expression): FIG. 3
From the text: FIG. 3. Average relative fold change in the expression of the genes coding for N-acetylglucosamine-6-phosphate deacetylase under different concentrations of N-acetylglucosamine (NAG) added to the culture media for Lactobacillus plantarum. Culture media with different concentrations of NAG (3, 12.5 and 20 g/L) were used to ferment Lactobacillus plantarum. The cells were harvested and RNA was isolated for qRT-PCR. Using specific primers for N-acetylglucosamine-6-phosphate deacetylase, activation was assessed using normalization to a housekeeping gene (rpoB) found in L. plantarum. […] Three different fermentation media compositions were made that contained: 1) 100% NAG (25 g/L); 2) 50% NAG (12.5 g/L) with 50% Lactose (12.5 g/L); and 3) 12.5% NAG (3 g/L) with 87.5% lactose (22 g/L). This represented about 2% of the total media composition (wt/vol). The media also contained sources of nitrogen, minerals, reducing agents and was autoclaved prior to addition of L. plantarum inoculum. The fermentation was carried out under anaerobic conditions for 24 hours until the cells reached the stationary phase. The cells were harvested and RNA extracted (Sambrook, Joseph. & Russell, David W. & Cold Spring Harbor Laboratory. (2012). Molecular cloning: a laboratory manual. Cold Spring Harbor, N.Y: Cold Spring Harbor Laboratory). Specific primers for Lactobacillus were used for the following gene N-acetylglucosamine-6-phosphate deacetylase (activation gene) using normalization to a housekeeping gene (rpoB) found in L. plantarum.

fucosidase activity (absorbance at 450 nm) ([3]; B. infantis final product grown on 2.5% w/v NAG, compared to cells grown on glucose/lactose, FIG. 1) | release of nitrophenol from aryl-substituted glycoside via fucosidases ([3]; dried B. infantis grown on NAG as 100% of carbon source, 2% wt/vol of media, up to 72 hours, compared to glucose/lactose) | activation of L. plantarum (fold change of N-acetylglucosamine-6-phosphate deacetylase expression) ([5]; 3 g/L NAG (12.5%) with 22 g/L lactose, 24 hours) | activation of L. plantarum (fold change of N-acetylglucosamine-6-phosphate deacetylase expression) ([5]; 12.5 g/L NAG (50%) with 12.5 g/L lactose, 24 hours) | activation of L. plantarum (fold change of N-acetylglucosamine-6-phosphate deacetylase expression) ([5]; 20 g/L NAG in culture media) | activation of L. plantarum (N-acetylglucosamine-6-phosphate deacetylase expression) ([5]; 100% NAG (25 g/L) as carbon source, 24 hours) | SMILES | Mean 2^-ΔΔCt BLON_2343 [1] | Mean 2^-ΔΔCt BLON_0881 [2] | Interpretation (activation; result greater than 1 is considered activated) (B. infantis EVC001) | relative fold change in gene expression of Blon_2343 and Blon_0881 (2^ΔΔCt), activation [4]
 |  |  |  |  |  | CC(=O)N[C@H]1C(O)O[C@H](CO)[C@@H](O[C@@H]2O[C@H](CO)[C@H](O)[C@H](O)[C@H]2O)[C@@H]1O (stereo partly shown) [N-acetyl-lactosamine] | 6.94 | 10.50 | activator; also recorded: Activated | 
had fucosidase activity | release nitrophenol | did not | activated; also recorded: activation | activated | activation | CC(=O)N[C@H]1C(O)O[C@H](CO)[C@@H](O)[C@@H]1O (stereo partly shown) [NAG, N-acetylglucosamine] | 2.10 | 3.41 | Activated | > 1
